This is an account of results in ChEMBL document CHEMBL2177104, “Identification of antitubercular benzothiazinone compounds by ligand-based design” (J Med Chem, 2012).

Molecules are shown by their SMILES. In brackets after ≈: the same amount, converted by molar mass.

For this assay, the system named is Mycobacterium tuberculosis. Put plainly: Antimycobacterial activity against multidrug-resistant Mycobacterium tuberculosis 2745/09. The class given is functional.
In general, MIC refers to the least concentration at which growth counts as inhibited. Compound `O=c1nc(NCc2ccc3c(c2)OCCO3)sc2c([N+](=O)[O-])cc(C(F)(F)F)cc12` returned an MIC of 0.03 µg/mL (≈ 0.0683 µM).

On to `Cc1ccc(CNc2nc(=O)c3cc(C(F)(F)F)cc([N+](=O)[O-])c3s2)n1C`, for which the MIC was no more than 0.125 µg/mL.

In the case of `CN(C(=O)CN1CCN(c2nc(=O)c3cc(C(F)(F)F)cc([N+](=O)[O-])c3s2)CC1)c1ccccc1`, the MIC was 0.03 µg/mL (≈ 0.0591 µM).

As to `O=c1nc(N2CCN(c3nccs3)CC2)sc2c([N+](=O)[O-])cc(C(F)(F)F)cc12`, the MIC was no more than 0.125 µg/mL.

Regarding `CN(C)c1ccc(CN(C)c2nc(=O)c3cc(C(F)(F)F)cc([N+](=O)[O-])c3s2)cc1`, inhibition of growth (MIC) required 0.03 µg/mL (≈ 0.0684 µM).

`O=c1nc(N2CCC(F)(F)CC2)sc2c([N+](=O)[O-])cc(C(F)(F)F)cc12`: the MIC is no more than 0.125 µg/mL.

The compound `CN(c1nc(=O)c2cc(C(F)(F)F)cc([N+](=O)[O-])c2s1)[C@H]1CCN(Cc2ccccc2)C1` came in with an MIC greater than 0.03 µg/mL.

`O=c1nc(N2CCC(c3ccccc3)CC2)sc2c([N+](=O)[O-])cc(C(F)(F)F)cc12` showed an MIC of no more than 0.0125 µg/mL.

Compound `COC(=O)C1CN(c2nc(=O)c3cc(C(F)(F)F)cc([N+](=O)[O-])c3s2)CCC12OC[C@H](C)O2` (some centres not stated) showed an MIC greater than 0.1 µg/mL.

Consider `COC(=O)[C@@H]1OC2(CCN(c3nc(=O)c4cc(C(F)(F)F)cc([N+](=O)[O-])c4s3)CC2)O[C@H]1c1ccccc1`, for which the MIC was greater than 0.03 µg/mL.

Compound `CCCOCC1COC2(CCN(c3nc(=O)c4cc(C(F)(F)F)cc([N+](=O)[O-])c4s3)CC2)O1` (configuration not stated) gave an MIC of no more than 0.015 µg/mL.

Consider `C[C@H]1COC2(CCN(c3nc(=O)c4cc(C(F)(F)F)cc([N+](=O)[O-])c4s3)CC2)O1` [BTZ-043], for which the MIC was no more than 0.015 µg/mL.
